From patent publication US20020183725A1, “Masking Agent” (priority 2001, published 2002)

Columns and labels:
[1] = Light absorption study of masking solutions with laser radiation (Beer's law, transmission vs. concentration); type: physicochemical; details: 213 nm laser wavelength; reciprocal of absorption coefficient
Procedure: Light absorbent studies were carried out using 213 nm radiation produced as the fifth harmonic wavelength of the fundamental 1064 nm wavelength of an Nd:YAG laser, with a pulse duration of 6 ns and repetition rate of 20 Hz. The pulse energy of the laser was monitored using an energy detector and a storage oscilloscope. The energy of the laser was obtained from the amplitude of the voltage signal delivered from the detector.
Beer's Law states that if light is passed through solution, energy is attenuated according to the formula:
Where: αM is the molar absorption coefficient in M^−1 cm^−1
C is the concentration in moles per liter
Ef and Ei are the final and initial pulse energies respectively.
In order to determine the amount of light absorbed (A) by the solution the molar absorption co-efficient is found from the gradient of the log-linear plot of Beer's law.
The absorption coefficient (α cm^−1) can then be calculated by multiplying the molar absorption coefficient by the concentration. Once the absorption coefficient is obtained, the penetration depth can be calculated from the reciprocal of this value.
Readings were taken for BSS maintaining the same dilutions. […] Five random readings were taken for each dilution and the mean calculated, in order to reduce the error from inter-pulse variations. […]

[2] = Fluorescence under the incident laser beam; type: physicochemical; details: laser beam incident on it
Source text: This would be a useful property in PTK.

For `CC1COc2c(N3CCN(C)CC3)c(F)cc3c(=O)c(C(=O)O)cn1c23` (centres unmarked) [Ofloxacin, 9-fluoro-2,3-dihydro-3-methyl-10-(4-methyl-1-piperazinyl)-7-oxo-7H-pyrido[1,2,3-de][1,4]benzoxazine-6-carboxylic acid], the “Penetration Depth” value [1] was 50.3 μm and the “Fluorescence when the laser beam is incident” value [2] was “fluoresces”.
